Experiments:
[1] = biological target: Cyclin-dependent kinase 2 (Homo sapiens) (UniProt P24941); test: CDK2 SGC Tm panel (DSF); settings: for ΔTm: Compound concentration 10.0 uM
[2] = biological target: Casein kinase I isoform delta (Homo sapiens) (UniProt P48730); test: CSNK1D SGC Tm panel (DSF); settings: for ΔTm: Compound concentration 10.0 uM
[3] = biological target: Mitogen-activated protein kinase 14 (Homo sapiens) (UniProt Q16539); test: MAPK14 SGC Tm panel (DSF); settings: for ΔTm: Compound concentration 10.0 uM
[4] = biological target: SRSF protein kinase 3 (Homo sapiens) (UniProt Q9UPE1); test: MSSK1 SGC Tm panel (DSF); settings: for ΔTm: Compound concentration 10.0 uM
[5] = biological target: T1, Ribosyldihydronicotinamide dehydrogenase [quinone] (Homo sapiens) (UniProt P16083); test: NQO2 SGC Tm panel (DSF); settings: for ΔTm: Compound concentration 10.0 uM
T1 sequence (whole entry): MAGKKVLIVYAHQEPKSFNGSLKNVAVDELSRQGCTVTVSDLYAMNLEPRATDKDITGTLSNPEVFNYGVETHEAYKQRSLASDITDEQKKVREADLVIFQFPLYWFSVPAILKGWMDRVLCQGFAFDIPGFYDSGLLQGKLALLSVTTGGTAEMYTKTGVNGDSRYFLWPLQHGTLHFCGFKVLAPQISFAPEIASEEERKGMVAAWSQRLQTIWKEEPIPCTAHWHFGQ

[6] = biological target: Serine/threonine-protein kinase PAK 1 (Homo sapiens) (UniProt Q13153); test: PAK1 SGC Tm panel (DSF); settings: for ΔTm: Compound concentration 10.0 uM
[7] = biological target: T2, Serine/threonine-protein kinase 3 (Homo sapiens) (UniProt Q13188); test: STK3 SGC Tm panel (DSF); settings: for ΔTm: Compound concentration 10.0 uM
T2 sequence (whole entry): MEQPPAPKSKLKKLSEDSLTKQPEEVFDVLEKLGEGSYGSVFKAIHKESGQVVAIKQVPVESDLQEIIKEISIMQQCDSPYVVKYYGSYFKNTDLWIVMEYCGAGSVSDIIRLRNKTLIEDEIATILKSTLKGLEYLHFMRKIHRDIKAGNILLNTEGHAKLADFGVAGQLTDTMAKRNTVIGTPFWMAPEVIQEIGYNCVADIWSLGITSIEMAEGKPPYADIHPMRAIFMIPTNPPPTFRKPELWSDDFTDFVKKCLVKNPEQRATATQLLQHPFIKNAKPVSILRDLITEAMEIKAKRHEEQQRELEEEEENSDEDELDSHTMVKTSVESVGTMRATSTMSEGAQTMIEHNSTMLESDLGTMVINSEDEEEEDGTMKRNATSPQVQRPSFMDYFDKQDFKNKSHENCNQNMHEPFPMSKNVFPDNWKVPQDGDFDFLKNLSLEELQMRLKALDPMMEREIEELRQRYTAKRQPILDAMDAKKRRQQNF

[8] = biological target: T3, Serine/threonine-protein kinase tousled-like 1 (Homo sapiens) (UniProt Q9UKI8); test: TLK1 SGC Tm panel (DSF); settings: for ΔTm: Compound concentration 10.0 uM
T3 sequence (whole entry): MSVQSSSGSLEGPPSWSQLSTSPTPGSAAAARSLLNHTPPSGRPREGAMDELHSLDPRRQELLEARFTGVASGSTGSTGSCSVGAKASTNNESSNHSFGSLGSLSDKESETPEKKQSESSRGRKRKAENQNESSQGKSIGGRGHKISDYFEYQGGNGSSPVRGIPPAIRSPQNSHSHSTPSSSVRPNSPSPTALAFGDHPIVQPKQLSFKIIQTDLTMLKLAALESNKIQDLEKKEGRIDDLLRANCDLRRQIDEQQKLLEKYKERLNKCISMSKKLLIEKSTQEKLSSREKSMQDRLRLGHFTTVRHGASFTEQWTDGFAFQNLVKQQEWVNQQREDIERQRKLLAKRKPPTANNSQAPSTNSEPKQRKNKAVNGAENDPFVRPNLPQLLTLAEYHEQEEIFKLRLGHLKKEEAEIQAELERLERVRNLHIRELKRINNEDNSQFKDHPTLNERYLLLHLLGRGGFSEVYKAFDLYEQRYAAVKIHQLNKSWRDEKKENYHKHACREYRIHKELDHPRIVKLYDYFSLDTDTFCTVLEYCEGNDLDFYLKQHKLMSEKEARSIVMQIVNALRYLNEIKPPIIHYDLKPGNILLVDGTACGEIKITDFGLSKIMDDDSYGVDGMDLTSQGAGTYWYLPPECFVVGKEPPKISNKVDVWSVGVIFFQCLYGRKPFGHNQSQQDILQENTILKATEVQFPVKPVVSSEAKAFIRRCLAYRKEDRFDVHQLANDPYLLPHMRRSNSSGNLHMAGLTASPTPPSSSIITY

[9] = biological target: D(2) dopamine receptor (Homo sapiens) (UniProt P14416); settings: Compound concentration 10.0 uM
[10] = biological target: Kappa-type opioid receptor (Homo sapiens) (UniProt P41145); settings: Compound concentration 10.0 uM
[11] = biological target: T4, Muscarinic acetylcholine receptor M1 (Homo sapiens) (UniProt P11229); settings: Compound concentration 10.0 uM
T4 sequence (whole entry): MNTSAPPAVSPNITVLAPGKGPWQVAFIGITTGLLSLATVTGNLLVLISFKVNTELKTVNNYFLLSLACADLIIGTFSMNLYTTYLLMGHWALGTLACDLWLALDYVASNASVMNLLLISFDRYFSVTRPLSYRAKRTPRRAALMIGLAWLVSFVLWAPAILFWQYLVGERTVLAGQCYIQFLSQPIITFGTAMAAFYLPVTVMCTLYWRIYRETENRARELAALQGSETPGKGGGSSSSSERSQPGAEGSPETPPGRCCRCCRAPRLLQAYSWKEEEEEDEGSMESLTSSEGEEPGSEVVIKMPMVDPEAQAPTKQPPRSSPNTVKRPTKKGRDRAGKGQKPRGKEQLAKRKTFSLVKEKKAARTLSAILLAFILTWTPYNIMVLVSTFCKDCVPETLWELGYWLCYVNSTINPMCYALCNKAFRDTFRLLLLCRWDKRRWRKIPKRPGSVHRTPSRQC

Chain of Mitogen-activated protein kinase 14 (Homo sapiens) (Q16539 whole entry): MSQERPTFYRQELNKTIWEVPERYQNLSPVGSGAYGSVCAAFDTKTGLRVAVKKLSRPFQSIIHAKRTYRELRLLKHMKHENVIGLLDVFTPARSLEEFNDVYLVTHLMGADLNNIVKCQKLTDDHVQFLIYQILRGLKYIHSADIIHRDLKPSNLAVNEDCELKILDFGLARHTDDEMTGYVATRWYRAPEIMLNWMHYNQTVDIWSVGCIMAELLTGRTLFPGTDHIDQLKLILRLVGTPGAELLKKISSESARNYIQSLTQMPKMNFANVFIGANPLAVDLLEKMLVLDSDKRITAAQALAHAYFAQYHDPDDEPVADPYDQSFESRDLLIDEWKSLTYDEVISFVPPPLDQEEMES
Chain of Kappa-type opioid receptor (Homo sapiens) (P41145 whole entry): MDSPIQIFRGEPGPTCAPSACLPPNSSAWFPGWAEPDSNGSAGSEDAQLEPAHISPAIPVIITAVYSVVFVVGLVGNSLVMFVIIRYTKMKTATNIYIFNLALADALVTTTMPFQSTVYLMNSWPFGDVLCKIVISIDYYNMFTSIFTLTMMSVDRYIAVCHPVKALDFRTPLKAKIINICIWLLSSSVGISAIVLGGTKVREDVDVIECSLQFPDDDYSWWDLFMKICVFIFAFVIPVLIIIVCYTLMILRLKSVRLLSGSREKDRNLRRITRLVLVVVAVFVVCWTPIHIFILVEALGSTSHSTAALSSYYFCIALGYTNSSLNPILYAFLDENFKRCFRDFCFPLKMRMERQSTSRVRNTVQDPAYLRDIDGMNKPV
Chain of D(2) dopamine receptor (Homo sapiens) (P14416 whole entry): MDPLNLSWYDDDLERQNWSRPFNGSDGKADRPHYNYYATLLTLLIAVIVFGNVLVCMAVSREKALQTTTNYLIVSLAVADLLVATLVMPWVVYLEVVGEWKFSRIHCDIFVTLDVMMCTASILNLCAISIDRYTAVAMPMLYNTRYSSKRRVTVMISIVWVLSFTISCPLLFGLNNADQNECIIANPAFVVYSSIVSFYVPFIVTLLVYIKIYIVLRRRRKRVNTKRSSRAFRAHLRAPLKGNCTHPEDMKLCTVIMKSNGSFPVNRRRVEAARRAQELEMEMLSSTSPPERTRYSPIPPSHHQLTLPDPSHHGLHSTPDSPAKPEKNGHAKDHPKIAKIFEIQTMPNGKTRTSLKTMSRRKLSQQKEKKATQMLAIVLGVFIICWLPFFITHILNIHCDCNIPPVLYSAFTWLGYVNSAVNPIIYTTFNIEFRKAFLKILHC
Chain of Casein kinase I isoform delta (Homo sapiens) (P48730 whole entry, looked up, canonical isoform): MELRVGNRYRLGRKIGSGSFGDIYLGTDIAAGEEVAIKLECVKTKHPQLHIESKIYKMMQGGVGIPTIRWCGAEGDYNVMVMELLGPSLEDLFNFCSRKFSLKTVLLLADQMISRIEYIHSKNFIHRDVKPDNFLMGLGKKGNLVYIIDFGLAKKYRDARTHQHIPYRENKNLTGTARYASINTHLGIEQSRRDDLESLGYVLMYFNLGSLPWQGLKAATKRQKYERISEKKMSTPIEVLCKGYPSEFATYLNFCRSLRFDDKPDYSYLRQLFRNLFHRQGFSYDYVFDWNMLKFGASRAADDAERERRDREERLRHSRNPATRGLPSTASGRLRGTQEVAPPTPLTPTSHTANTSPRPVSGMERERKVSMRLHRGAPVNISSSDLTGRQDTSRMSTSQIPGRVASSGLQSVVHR
Chain of SRSF protein kinase 3 (Homo sapiens) (Q9UPE1 whole entry): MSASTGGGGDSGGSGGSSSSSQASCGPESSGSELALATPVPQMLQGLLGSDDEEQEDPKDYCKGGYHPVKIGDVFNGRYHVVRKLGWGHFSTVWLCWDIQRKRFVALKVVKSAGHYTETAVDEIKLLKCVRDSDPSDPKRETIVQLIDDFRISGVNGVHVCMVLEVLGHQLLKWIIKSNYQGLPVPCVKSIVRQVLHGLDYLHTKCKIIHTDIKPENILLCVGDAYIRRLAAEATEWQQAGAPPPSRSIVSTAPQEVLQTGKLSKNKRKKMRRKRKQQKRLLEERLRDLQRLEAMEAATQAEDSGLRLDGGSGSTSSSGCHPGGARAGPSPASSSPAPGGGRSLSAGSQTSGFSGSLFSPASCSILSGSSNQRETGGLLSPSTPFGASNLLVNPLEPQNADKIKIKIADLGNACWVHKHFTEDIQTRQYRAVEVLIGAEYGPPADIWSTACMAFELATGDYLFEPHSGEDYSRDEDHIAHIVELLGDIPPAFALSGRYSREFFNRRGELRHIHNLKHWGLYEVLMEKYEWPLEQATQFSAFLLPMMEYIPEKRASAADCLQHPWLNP
Chain of Serine/threonine-protein kinase PAK 1 (Homo sapiens) (Q13153 whole entry): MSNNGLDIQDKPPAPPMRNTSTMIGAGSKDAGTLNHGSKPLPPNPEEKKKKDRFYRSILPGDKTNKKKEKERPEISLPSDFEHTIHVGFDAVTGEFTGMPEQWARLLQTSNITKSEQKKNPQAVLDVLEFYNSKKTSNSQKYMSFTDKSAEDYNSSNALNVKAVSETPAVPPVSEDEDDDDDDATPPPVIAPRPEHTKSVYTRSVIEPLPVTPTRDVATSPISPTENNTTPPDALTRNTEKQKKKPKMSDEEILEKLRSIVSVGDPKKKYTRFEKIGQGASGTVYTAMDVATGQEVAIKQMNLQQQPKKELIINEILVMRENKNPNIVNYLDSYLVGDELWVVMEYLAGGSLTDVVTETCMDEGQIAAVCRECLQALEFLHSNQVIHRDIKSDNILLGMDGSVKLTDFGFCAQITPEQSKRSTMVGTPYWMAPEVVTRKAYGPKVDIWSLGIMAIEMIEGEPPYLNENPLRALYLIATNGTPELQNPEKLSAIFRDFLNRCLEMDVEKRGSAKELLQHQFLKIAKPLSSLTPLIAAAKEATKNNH

Structure (SMILES) | delta Tm Staurosporine positive control [1] | ΔTm [1] | delta Tm Staurosporine positive control [2] | ΔTm [2] | delta Tm Staurosporine positive control [3] | ΔTm [3] | delta Tm Staurosporine positive control [4] | ΔTm [4] | delta Tm Staurosporine positive control [5] | ΔTm [5] | delta Tm Staurosporine positive control [6] | ΔTm [6] | delta Tm Staurosporine positive control [7] | ΔTm [7] | delta Tm Staurosporine positive control [8] | ΔTm [8] | inhibition [9] | inhibition [10] | inhibition [11]
CCC[C@H]1CNCc2c1[nH]c(=O)c(C#N)c2N1CCC2(CC1)CC2 | 14.3 | -0.589 | 2.05 | -0.142 | 0.178 | -0.473 | 4.52 | -0.144 | -1.11 | -0.626 | 7.21 | -0.68 | 16.5 | -0.737 | 9.74 | -1.34 | 3.01% | 34.3% | 0.28%
CCC[C@@H]1CNCc2c1[nH]c(=O)c(C#N)c2N1CCC2(CC1)CC2 | 14.3 | -0.673 | 2.05 | 0.052 | 0.178 | -0.46 | 4.52 | -0.164 | -1.11 | -0.613 | 7.21 | -0.679 | 16.5 | -0.767 | 9.74 | -1.18 | -4.21% | 29.3% | -0.37%
